According to EP2979694B1, “Dimercaptosuccinic acid for the treatment of multidrug resistant bacterial infections” (priority 2014, dated 2016):

What was measured:
NDM-1 [1] = target: T1, NDM-1 (Klebsiella pneumoniae, UniProt C7C422); conditions: affinity for NDM-1; cited from earlier work
T1 construct: made in house

Kp NDM IND = test: MIC of meropenem with or without DMSA or MSA; assay type: cell-based, K. pneumoniae
Protocol: (§1) MICs of meropenem with of without DMSA or MSA Table 3
(§2) DMSA and MSA were used at a concentration of 3 mM each. A negative control was used as strain KpC3 producing the non- metallo carbapenemase KPC

Kp NDM KIE = test: MIC of meropenem with or without DMSA or MSA; assay type: cell-based, K. pneumoniae
Protocol: as §1, §2

Kp VIM KOW1 = test: MIC of meropenem with or without DMSA or MSA; assay type: cell-based, K. pneumoniae
Protocol: as §1, §2

E. coli NDM CHAN = test: MIC of meropenem with or without DMSA or MSA; assay type: cell-based
Protocol: (§3) DMSA reduced the MICs of ertapenem for bacteria producing NDM-1 though the synergy effect was weaker than that observed for bacteria producing IMP and VIM-type MBLs.
as §1, §2

E. coli NDM FEK = test: MIC of meropenem with or without DMSA or MSA; assay type: cell-based
Protocol: as §3, §1, §2

E. coli NDM pCR2.1 = test: MIC of meropenem with or without DMSA or MSA; assay type: cell-based
Protocol: as §3, §1, §2

E. coli VIM KOW7 = test: MIC of meropenem with or without DMSA or MSA; assay type: cell-based
Protocol: as §3, §1, §2

Kp C3 KPC-3 = test: MIC of meropenem with or without DMSA or MSA (negative control strain, non-metallo carbapenemase KPC); assay type: cell-based, K. pneumoniae; conditions: Kp C3 KPC-3 (negative control)
Protocol: as §1, §2

E. cloacae 1008029 = test: MIC of carbapenems with or without DMSA; assay type: cell-based; conditions: E. cloacae 1008029, VIM-1 + CTX-M-3; no DMSA
Protocol: (§4) Minimum inhibitory concentrations (MICs) of carbapenems were determined in-vitro with strains (reference and clinical) producing the three main types of class B carbapenemases which are IMP, VIM and NDM, with or without EDTA and DMSA.
(§5) MICs of imipenem was determined for E. coli TOP10 pCR2.1-(PNDM-1-blaNDM-1-bleMBL) in the presence of 0, 0.01, 0.1 or 1 mg/ml of Ca-EDTA or DMSA by using the broth microdilution method in zinc-complemented M9CA minimum medium (SD7025, Euromedex, France).
(§6) A 100 mM DMSA stock solution (Sigma Aldrich, France) (pH 5.0) was prepared in 0.2 M NaOH as recommended (Maiorino et al. 1990) and pH was neutralized to pH 7.0 with NaHCO3 Na2Ca-EDTA (Sigma Aldrich, France) dissolved in water.
(§7) The strains were as follows: VIM producers (n=10), IMP producers (n=9), NDM-1 producers (n=10). The selected concentration of DMSA was 10-fold (0.3 mM) and 100-fold (3 mM) that of the human peak serum concentration after oral administration (Asiedu et al;, 1995), and that of Ca-EDTA was assayed at the fixed concentration of 0.2 mM (Table 2). […]

E. cloacae 1008085 = test: MIC of carbapenems with or without DMSA; assay type: cell-based; conditions: E. cloacae 1008085, IMP-1; no DMSA
Protocol: as §4, §5, §6, §7

E. cloacae 1008183 = test: MIC of carbapenems with or without DMSA; assay type: cell-based; conditions: E. cloacae 1008183, IMP-1; no DMSA
Protocol: as §4, §5, §6, §7

E. cloacae 1008186 = test: MIC of carbapenems with or without DMSA; assay type: cell-based; conditions: E. cloacae 1008186, IMP-1; no DMSA
Protocol: as §4, §5, §6, §7

E. cloacae 396715 = test: MIC of carbapenems with or without DMSA; assay type: cell-based; conditions: E. cloacae 396715, VIM-1; no DMSA
Protocol: as §4, §5, §6, §7

E. cloacae TAW = test: MIC of carbapenems with or without DMSA; assay type: cell-based; conditions: IMP-8, no DMSA
Protocol: as §4, §5, §6, §7

E. coli 0404018 = test: MIC of carbapenems with or without DMSA; assay type: cell-based; conditions: E. coli 0404018, VIM-1 + CMY-6; no DMSA
Protocol: as §4, §5, §6, §7

E. coli 1008077 = test: MIC of carbapenems with or without DMSA; assay type: cell-based; conditions: E. coli 1008077, VIM-1 + TEM-3; no DMSA
Protocol: as §4, §5, §6, §7

E. coli 1108013 = test: MIC of carbapenems with or without DMSA; assay type: cell-based; conditions: E. coli 1108013, IMP-1 + TEM-1; no DMSA
Protocol: as §4, §5, §6, §7

E. coli 162 = test: MIC of carbapenems with or without DMSA; assay type: cell-based; conditions: E. coli 162, NDM-5 + TEM-1 +CTX-M-15; no DMSA
Protocol: as §4, §5, §6, §7

E. coli 405 = test: MIC of carbapenems with or without DMSA; assay type: cell-based; conditions: E. coli 405, NDM-5 + TEM-1 +CTX-M-15; no DMSA
Protocol: as §4, §5, §6, §7

E. coli BOUN = test: MIC of carbapenems with or without DMSA; assay type: cell-based; conditions: NDM-4 + OXA-1, no DMSA
Protocol: as §4, §5, §6, §7

E. coli COUP = test: MIC of carbapenems with or without DMSA; assay type: cell-based; conditions: NDM-7 + OXA-1 +CTX-M-15, no DMSA
Protocol: as §4, §5, §6, §7

E. coli DIH = test: MIC of carbapenems with or without DMSA; assay type: cell-based; conditions: VIM-19, no DMSA
Protocol: as §4, §5, §6, §7

E. coli IBIS = test: MIC of carbapenems with or without DMSA; assay type: cell-based; conditions: VIM-4, no DMSA, unit assumed
Protocol: as §4, §5, §6, §7

E. coli IR5 = test: MIC of carbapenems with or without DMSA; assay type: cell-based; conditions: E. coli IR5, NDM-1 + TEM-1 +CTX-M-15; no DMSA
Protocol: as §4, §5, §6, §7

E. coli JAP = test: MIC of carbapenems with or without DMSA; assay type: cell-based; conditions: IMP-1, no DMSA
Protocol: as §4, §5, §6, §7

E. coli MAD = test: MIC of carbapenems with or without DMSA; assay type: cell-based; conditions: VIM-1 + CTX-M-3, no DMSA
Protocol: as §4, §5, §6, §7

K.p. 0709124 = test: MIC of carbapenems with or without DMSA; assay type: cell-based, K. pneumoniae; conditions: K.p. 0709124, IMP-1b + TEM-15; no DMSA
Protocol: as §4, §5, §6, §7

K.p. 6852 = test: MIC of carbapenems with or without DMSA; assay type: cell-based, K. pneumoniae; conditions: K.p. 6852, IMP-1 + SHV-5; no DMSA
Protocol: as §4, §5, §6, §7

K.p. ROUM = test: MIC of carbapenems with or without DMSA; assay type: cell-based, K. pneumoniae; conditions: VIM, no DMSA
Protocol: as §4, §5, §6, §7

K.p. TAW = test: MIC of carbapenems with or without DMSA; assay type: cell-based, K. pneumoniae; conditions: IMP-8 + SHV-5, no DMSA
Protocol: as §4, §5, §6, §7

[2] = system: E. coli TOP10 pCR2.1-(PNDM-1-blaNDM-1-bleMBL); test: MIC of imipenem, broth microdilution in zinc-complemented M9CA minimum medium; assay type: cell-based
Source text: (§8) Inhibitory properties of DMSA and EDTA were also compared in-vitro by UV spectrophotometry using purified NDM-1 protein and carbapenems as substrates. E. coli TOP10 pCR2.1-(PNDM-1-blaNDM-1-bleMBL), expressing the blaNDM-1 gene with its original promoter (PNDM-1) cloned into a pTOPO multicopy plasmid and expressed in E. coli TOP10 reference strain (Dortet et al. 2012) was used for preliminary assays in order to determine the most efficient of DMSA being active against NDM producers.
as §5, with “France). M9CA minimal medium was used preferably to the standard Mueller Hinton broth in order to determine precisely the concentration of zinc in broth (ZnSO4, Sigma Aldrich, France, 5µg/ml (final concentration).” for “France).”
as §6

NDM-1 [3] = target: T1, NDM-1; test: Inhibition of purified NDM-1 hydrolytic activity, UV spectrophotometry; assay type: biochemical
Source text: as §8
Inhibition of NDM-1 by DMSA was assessed on a purified fraction of NDM-1, obtained as previously described for NDM-4 (Nordmann et al. 2012) with imipenem 100 µM as substrate.

IMP-like producers = test: MIC of carbapenems, summary over IMP producers (n=9); assay type: cell-based
Protocol: as §7, with “2). The MICs of carbapenems varied widely among isolates producing a same carbapenemase type. DMSA at 3 mM lowered the MICs of imipenem and ertapenem of IMP-like producers (100% of the tested isolates), and VIM-like producers (70 to 80 % of the tested isolates).” for “2).”

NDM-like producers = test: MIC of carbapenems, summary over NDM producers (n=10); assay type: cell-based; conditions: DMSA at 3 mM
Protocol: as §7, with “2). The MICs of carbapenems varied widely among isolates producing a same carbapenemase type. DMSA at 3 mM lowered the MICs of imipenem and ertapenem of IMP-like producers (100% of the tested isolates), and VIM-like producers (70 to 80 % of the tested isolates).” for “2).”

[4] = after a single oral dose of DMSA (10 mg); cited from earlier work
IMP-1 = IMP-1 (Serratia marcescens, UniProt P52699); conditions: 20 microM; cited from earlier work
Sequence of IMP-1 (P52699 19-246 limits assumed): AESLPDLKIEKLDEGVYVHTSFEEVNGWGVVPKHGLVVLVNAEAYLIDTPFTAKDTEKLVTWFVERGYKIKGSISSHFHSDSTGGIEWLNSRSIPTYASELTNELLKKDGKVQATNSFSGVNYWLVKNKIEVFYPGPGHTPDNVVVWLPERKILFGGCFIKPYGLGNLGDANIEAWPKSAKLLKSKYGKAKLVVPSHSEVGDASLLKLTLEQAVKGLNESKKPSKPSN

[5] = Klebsiella pneumoniae, without DMSA or MSA
[6] = Escherichia coli, without DMSA or MSA

T1 sequence (C7C422 29-270, looked up): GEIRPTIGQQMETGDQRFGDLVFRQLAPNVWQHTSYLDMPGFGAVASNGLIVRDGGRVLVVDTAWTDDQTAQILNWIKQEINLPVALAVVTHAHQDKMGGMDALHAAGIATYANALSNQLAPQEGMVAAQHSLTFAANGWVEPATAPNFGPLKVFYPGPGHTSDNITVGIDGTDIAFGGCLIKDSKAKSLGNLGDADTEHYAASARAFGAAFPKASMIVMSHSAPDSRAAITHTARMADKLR

CC/C(C(=O)O)=C(\CC)C(=O)O [ME1071]
Ki (NDM-1 [1]): 24 mM

C[C@@H](O)[C@H]1C(=O)N2C(C(=O)O)=C(S[C@@H]3CN[C@H](C(=O)N(C)C)C3)[C@H](C)[C@H]12 [meropenem]
MIC (Kp NDM IND; [5]): 4 µg/mL
MIC (Kp NDM KIE; [5]): 4 µg/mL
MIC (Kp VIM KOW1; Klebsiella pneumoniae, VIMKOW1, without DMSA or MSA): > 32 µg/mL
MIC (E. coli NDM CHAN; [6]): 3 µg/mL
MIC (E. coli NDM FEK; [6]): 6 µg/mL
MIC (E. coli NDM pCR2.1; Escherichia coli, NDMPCR2.1, read-out: MIC of meropenem): > 32 µg/mL
MIC (E. coli VIM KOW7; Escherichia coli, VIMKOW7, without DMSA or MSA): 0.5 µg/mL
MIC (Kp C3 KPC-3; Klebsiella pneumoniae, C3KPC3, without DMSA or MSA): > 32 µg/mL

C[C@@H](O)[C@H]1C(=O)N2C(C(=O)O)=C(SCCN=CN)C[C@H]12 [IPM, imipenem]
MIC (E. cloacae 1008029): 16 µg/mL
MIC (E. cloacae 1008085): 2 µg/mL
MIC (E. cloacae 1008183): 8 µg/mL
MIC (E. cloacae 1008186): 16 µg/mL
MIC (E. cloacae 396715): 4 µg/mL
MIC (E. cloacae TAW): 4 µg/mL
MIC (E. coli 0404018): 4 µg/mL
MIC (E. coli 1008077): 32 µg/mL
MIC (E. coli 1108013): 4 µg/mL
MIC (E. coli 162): 32 µg/mL
MIC (E. coli 405): 32 µg/mL
MIC (E. coli BOUN): 2 µg/mL
MIC (E. coli COUP): 2 µg/mL
MIC (E. coli DIH): 16 µg/mL
MIC (E. coli IBIS): 1 µg/mL
MIC (E. coli IR5): 2 µg/mL
MIC (E. coli JAP): 0.25 µg/mL
MIC (E. coli MAD): 0.25 µg/mL
MIC (K.p. 0709124): 32 µg/mL
MIC (K.p. 6852): > 32 µg/mL
MIC (K.p. ROUM): 32 µg/mL
MIC (K.p. TAW): 4 µg/mL

O=C(O)[C@@H](S)[C@@H](S)C(=O)O [DMSA, meso-2,3-dimercaptosuccinic acid]
MIC of imipenem ([2]; DMSA 0 mg/ml (imipenem alone)): 12 µg/mL
MIC of imipenem ([2]; DMSA 0.01 mg/ml): 12 µg/mL
MIC of imipenem ([2]; DMSA 0.1 mg/ml): 12 µg/mL
MIC of imipenem ([2]; DMSA 1 mg/ml): 0.2 µg/mL
IC50 (NDM-1 [3]): 1 mM
MIC of meropenem (Kp NDM IND; DMSA or MSA at 3 mM): 4 µg/mL
MIC of meropenem (Kp NDM KIE; DMSA or MSA at 3 mM): 0.5 µg/mL
MIC of meropenem (Kp VIM KOW1; DMSA or MSA at 3 mM): 32 µg/mL
MIC of meropenem (E. coli NDM CHAN; DMSA or MSA at 3 mM): 2 µg/mL
MIC of meropenem (E. coli NDM FEK; DMSA or MSA at 3 mM): 4 µg/mL
MIC of meropenem (E. coli NDM pCR2.1; E. coli NDM pCR2.1, DMSA or MSA at 3 mM): 8 µg/mL
MIC of meropenem (E. coli VIM KOW7; DMSA or MSA at 3 mM): 0.25 µg/mL
MIC of meropenem (Kp C3 KPC-3; DMSA or MSA at 3 mM): > 32 µg/mL
effect on the MICs of carbapenems (IMP-like producers; DMSA 0.3 mM, IMP-like producing isolates): lowered the MICs of carbapenems for most IMP-like producing isolates
tested isolates for which the MICs of imipenem and ertapenem were lowered (IMP-like producers; DMSA at 3 mM, IMP-like producers): 100%
effect on the MIC values of imipenem (NDM-like producers): did not significantly affect
tested isolates for which the MICs of ertapenem were reduced (NDM-like producers): 50%
plasma concentrations of DMSA [4]: ca. 100 µM
inhibition of IMP-1 (IMP-1): inhibit
